The values below come from patent US11891365B2, “3-alkyl-4-amido-bicyclic [4,5,0] hydroxamic acids as HDAC inhibitors” (Valo Health, Inc., priority 2015, dated 2024).

For the assay, the target named is T1, Full length human recombinant HDAC6 protein (Homo sapiens, UniProt Q9UBN7).
T1 sequence (Q9UBN7 1-1215): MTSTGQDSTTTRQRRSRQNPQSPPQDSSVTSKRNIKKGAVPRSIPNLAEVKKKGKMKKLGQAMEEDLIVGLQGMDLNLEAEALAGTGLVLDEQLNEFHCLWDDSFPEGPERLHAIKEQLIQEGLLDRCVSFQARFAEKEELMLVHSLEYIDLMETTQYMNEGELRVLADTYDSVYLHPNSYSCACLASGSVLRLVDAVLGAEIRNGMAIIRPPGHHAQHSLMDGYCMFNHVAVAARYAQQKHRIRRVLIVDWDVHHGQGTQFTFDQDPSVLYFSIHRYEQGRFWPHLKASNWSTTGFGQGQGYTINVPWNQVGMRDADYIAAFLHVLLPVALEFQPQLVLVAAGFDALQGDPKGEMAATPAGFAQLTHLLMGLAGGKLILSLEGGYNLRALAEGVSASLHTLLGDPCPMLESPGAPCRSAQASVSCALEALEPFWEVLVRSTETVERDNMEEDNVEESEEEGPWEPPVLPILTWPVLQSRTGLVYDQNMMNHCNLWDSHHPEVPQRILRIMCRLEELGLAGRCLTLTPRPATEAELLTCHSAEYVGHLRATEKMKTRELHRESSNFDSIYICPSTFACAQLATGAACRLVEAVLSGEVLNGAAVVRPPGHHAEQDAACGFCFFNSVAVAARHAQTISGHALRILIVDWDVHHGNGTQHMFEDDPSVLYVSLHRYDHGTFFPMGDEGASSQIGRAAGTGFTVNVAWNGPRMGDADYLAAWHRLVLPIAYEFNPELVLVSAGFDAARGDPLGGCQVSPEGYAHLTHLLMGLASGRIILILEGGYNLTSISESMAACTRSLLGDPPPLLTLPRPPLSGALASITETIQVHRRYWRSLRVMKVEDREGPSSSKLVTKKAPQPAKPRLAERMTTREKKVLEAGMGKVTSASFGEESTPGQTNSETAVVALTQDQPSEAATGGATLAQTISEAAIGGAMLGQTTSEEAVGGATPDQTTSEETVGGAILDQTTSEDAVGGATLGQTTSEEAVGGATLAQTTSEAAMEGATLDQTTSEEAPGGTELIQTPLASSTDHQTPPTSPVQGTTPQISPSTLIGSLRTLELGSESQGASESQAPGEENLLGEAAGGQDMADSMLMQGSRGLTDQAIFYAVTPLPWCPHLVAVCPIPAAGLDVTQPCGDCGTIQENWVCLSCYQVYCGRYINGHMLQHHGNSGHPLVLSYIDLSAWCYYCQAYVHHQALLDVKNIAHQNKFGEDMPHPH
Nature of the assay: In vitro histone deacetylase assay: enzymatic HDAC6 electrophoretic mobility shift assay. It counts as biochemical. Conditions: 1 nM enzyme, 2 μM peptide substrate RHKK(Ac)-NH2, 25° C., 12 concentrations; read-out: Inhibitory Concentration (IC50) Values against HDAC6, Activity Range.

Some results are limits rather than exact numbers.

Consider `O=C(NO)c1ccc2c(c1)OC[C@H](C(F)(F)F)N(C(=O)C1COC1)C2` [(R)-N-hydroxy-4-(oxetane-3-carbonyl)-3-(trifluoromethyl)-2,3,4,5-tetrahydrobenzo[f][1,4]oxazepine-8-carboxamide], for which the IC50 was at most 100 nM. For `O=C(NO)c1ccc2c(c1)OCCN(C(=O)C1Oc3ccccc3C13CCNCC3)C2` (stereo not drawn) [N-hydroxy-4-(2H-spiro[benzofuran-3,4′-piperidine]-2-carbonyl)-2,3,4,5-tetrahydrobenzo[f][1,4]oxazepine-8-carboxamide], the IC50 was 100 to 500 nM.

As to `C[C@H]1COc2cc(C(=O)NO)ccc2CN1C(=O)[C@H]1CCCCO1` [(S)-N-hydroxy-3-methyl-4-((R)-tetrahydro-2H-pyran-2-carbonyl)-2,3,4,5-tetrahydrobenzo[f][1,4]oxazepine-8-carboxamide], the IC50 was at most 100 nM. On to `CC(=O)N1Cc2ccc(C(=O)NO)cc2OC[C@@H]1C(C)C` [(S)-4-acetyl-N-hydroxy-3-isopropyl-2,3,4,5-tetrahydrobenzo[f][1,4]oxazepine-8-carboxamide], for which the IC50 is 100 to 500 nM. As to `CC(C(=O)N1CCOc2cc(C(=O)NO)ccc2C1)N1CCS(=O)(=O)CC1` (stereo not drawn) [4-(2-(1,1-dioxidothiomorpholino)propanoyl)-N-hydroxy-2,3,4,5-tetrahydrobenzo[f][1,4]oxazepine-8-carboxamide], the IC50 is over 500 nM. As for `Cn1c(C(=O)N2CCOc3cc(C(=O)NO)ccc3C2)cc2ccccc21` [N-hydroxy-4-(1-methyl-1H-indole-2-carbonyl)-2,3,4,5-tetrahydrobenzo[f][1,4]oxazepine-8-carboxamide], the IC50 was at most 100 nM. In the case of `CC(C)(C(=O)N1CCOc2cc(C(=O)NO)ccc2C1)c1ccccn1` [N-hydroxy-4-(2-methyl-2-(pyridin-2-yl)propanoyl)-2,3,4,5-tetrahydrobenzo[f][1,4]oxazepine-8-carboxamide], the IC50 lay within 100 to 500 nM. In the case of `CC(C)[C@@H]1c2ccc(C(=O)NO)cc2OCCN1C(=O)C1CCOCC1` [(R)-N-hydroxy-5-isopropyl-4-(tetrahydro-2H-pyran-4-carbonyl)-2,3,4,5-tetrahydrobenzo[f][1,4]oxazepine-8-carboxamide], the IC50 was over 500 nM. On to `O=C(NO)c1ccc2c(c1)OCCN(C(=O)Cc1ccccc1Oc1ccccc1)C2` [N-hydroxy-4-(2-(2-phenoxyphenyl)acetyl)-2,3,4,5-tetrahydrobenzo[f][1,4]oxazepine-8-carboxamide], for which the IC50 is over 500 nM. With `CC1(C(=O)N2CCOc3cc(C(=O)NO)ccc3C2)CCC1` [N-hydroxy-4-(1-methylcyclobutane-1-carbonyl)-2,3,4,5-tetrahydrobenzo[f][1,4]oxazepine-8-carboxamide], the IC50 is at most 100 nM. With `CC(C)(C)OC(=O)N1CCC2(CC1)CC(C(=O)N1CCOc3cc(C(=O)NO)ccc3C1)c1ccccc12` (stereo not drawn) [tert-butyl 3-(8-(hydroxycarbamoyl)-2,3,4,5-tetrahydrobenzo[f][1,4]oxazepine-4-carbonyl)-2,3-dihydrospiro[indene-1,4′-piperidine]-1′-carboxylate], the IC50 was in the range of 100 to 500 nM. The value for `C[C@H]1c2ccc(C(=O)NO)cc2OCCN1C(=O)C1(C)COC1` [(S)-N-hydroxy-5-methyl-4-(3-methyloxetane-3-carbonyl)-2,3,4,5-tetrahydrobenzo[f][1,4]oxazepine-8-carboxamide] was at most 100 nM; that for `C[C@H]1COc2cc(C(=O)NO)ccc2CN1C(=O)[C@H]1CCOC(C)(C)C1` [(S)-4-((S)-2,2-dimethyltetrahydro-2H-pyran-4-carbonyl)-N-hydroxy-3-methyl-2,3,4,5-tetrahydrobenzo[f][1,4]oxazepine-8-carboxamide] was at most 100 nM; that for `O=C(NO)c1ccc2c(c1)OCCN(C(=O)C1(c3ccc(Cl)cc3)CC1)C2` [4-(1-(4-chlorophenyl)cyclopropane-1-carbonyl)-N-hydroxy-2,3,4,5-tetrahydrobenzo[f][1,4]oxazepine-8-carboxamide] was at most 100 nM. On to `O=C(NO)c1ccc2c(c1)OCCN(C(=O)C1CCC3(CCNCC3)CC1)C2` [N-hydroxy-4-(3-azaspiro[5.5]undecane-9-carbonyl)-2,3,4,5-tetrahydrobenzo[f][1,4]oxazepine-8-carboxamide], for which the IC50 was at most 100 nM. As to `O=C(NO)c1ccc2c(c1)OCCN(C(=O)C(OC1CCOCC1)c1ccccc1)C2` (stereo not drawn) [N-hydroxy-4-(2-phenyl-2-((tetrahydro-2H-pyran-4-yl)oxy)acetyl)-2,3,4,5-tetrahydrobenzo[f][1,4]oxazepine-8-carboxamide], the IC50 is over 500 nM. As to `O=C(NO)c1ccc2c(c1)O[C@H](c1ccccc1)CN(C(=O)C1CCOCC1)C2` [(R)-N-hydroxy-2-phenyl-4-(tetrahydro-2H-pyran-4-carbonyl)-2,3,4,5-tetrahydrobenzo[f][1,4]oxazepine-8-carboxamide], the IC50 was 100 to 500 nM.

With `CC(=O)N1CCCC(C(=O)N2CCOc3cc(C(=O)NO)ccc3C2)C1` (stereo not drawn) [4-(1-acetylpiperidine-3-carbonyl)-N-hydroxy-2,3,4,5-tetrahydrobenzo[f][1,4]oxazepine-8-carboxamide], the IC50 was at most 100 nM. As to `C[C@H]1COc2cc(C(=O)NO)ccc2CN1C(=O)C1(C)CCCO1` (stereo partly drawn) [(3S)-N-hydroxy-3-methyl-4-(2-methyltetrahydrofuran-2-carbonyl)-2,3,4,5-tetrahydrobenzo[f][1,4]oxazepine-8-carboxamide], the IC50 was at most 100 nM. Turning to `CC(Cc1ccccc1)C(=O)N1CCOc2cc(C(=O)NO)ccc2C1` (stereo not drawn) [N-hydroxy-4-(2-methyl-3-phenylpropanoyl)-2,3,4,5-tetrahydrobenzo[f][1,4]oxazepine-8-carboxamide], the IC50 is at most 100 nM. As to `C[C@H]1c2ccc(C(=O)NO)cc2OCCN1C(=O)[C@@H]1CCOC1` [(S)-N-hydroxy-5-methyl-4-((R)-tetrahydrofuran-3-carbonyl)-2,3,4,5-tetrahydrobenzo[f][1,4]oxazepine-8-carboxamide], the IC50 was at most 100 nM. The value for `O=C(NO)c1ccc2c(c1)OCCN(C(=O)C1CCC(F)(F)C1)C2` (stereo not drawn) [4-(3,3-difluorocyclopentane-1-carbonyl)-N-hydroxy-2,3,4,5-tetrahydrobenzo[f][1,4]oxazepine-8-carboxamide] was at most 100 nM.

`C[C@H]1COc2cc(C(=O)NO)ccc2CN1C=O` [(S)-4-formyl-N-hydroxy-3-methyl-2,3,4,5-tetrahydrobenzo[f][1,4]oxazepine-8-carboxamide]: the IC50 is at most 100 nM. With `O=CN1Cc2ccc(C(=O)NO)cc2O[C@@H](c2ccccc2)C1` [(S)-4-formyl-N-hydroxy-2-phenyl-2,3,4,5-tetrahydrobenzo[f][1,4]oxazepine-8-carboxamide], the IC50 is at most 100 nM. For the compound `C[C@H]1COc2cc(C(=O)NO)ccc2CN1C(=O)C1(F)CCOCC1` [(S)-4-(4-fluorotetrahydro-2H-pyran-4-carbonyl)-N-hydroxy-3-methyl-2,3,4,5-tetrahydrobenzo[f][1,4]oxazepine-8-carboxamide], the IC50 is at most 100 nM.

For `C[C@H]1COc2cc(C(=O)NO)ccc2CN1C(=O)C1COC1` [(S)-N-hydroxy-3-methyl-4-(oxetane-3-carbonyl)-2,3,4,5-tetrahydrobenzo[f][1,4]oxazepine-8-carboxamide], the IC50 is at most 100 nM. Take `O=C(NO)c1ccc2c(c1)OCCN(C(=O)C1(c3cccc(C(F)(F)F)c3)CC1)C2` [N-hydroxy-4-(1-(3-(trifluoromethyl)phenyl)cyclopropane-1-carbonyl)-2,3,4,5-tetrahydrobenzo[f][1,4]oxazepine-8-carboxamide]: the IC50 is at most 100 nM.

`O=C(NO)c1ccc2c(c1)OCCN(C(=O)C(O)(c1ccccc1)C1CCCC1)C2` (stereo not drawn) [4-(2-cyclopentyl-2-hydroxy-2-phenylacetyl)-N-hydroxy-2,3,4,5-tetrahydrobenzo[f][1,4]oxazepine-8-carboxamide]: the IC50 was over 500 nM. With `CC1(C(=O)N2CCOc3cc(C(=O)NO)ccc3C2)COC1` [N-hydroxy-4-(3-methyloxetane-3-carbonyl)-2,3,4,5-tetrahydrobenzo[f][1,4]oxazepine-8-carboxamide], the IC50 is at most 100 nM. The value for `COC[C@@H]1CN(C(=O)C2(C)CCC2)Cc2ccc(C(=O)NO)cc2O1` [(S)-N-hydroxy-2-(methoxymethyl)-4-(1-methylcyclobutane-1-carbonyl)-2,3,4,5-tetrahydrobenzo[f][1,4]oxazepine-8-carboxamide] was at most 100 nM.
